This is an account of results in patent EP2529738A1, “Substituted terpyridines” (Max-Delbrück-Centrum für Molekulare Medizin, priority 2011, dated 2012).

Series [1] addresses T1, full length RIIα-His (Homo sapiens, UniProt P13861).
T1 construct: 20 µM unlabelled PKA-RIIα FL(1-404)-His; His (C)
The series can be described thus: saturation transfer difference (STD) NMR binding experiment. The conditions noted are these: result in words; reduction in ligand peak intensity indicates binding. Here is the method: (§1) The compounds were tested first in a saturation transfer difference (STD) NMR experiment. For the STD experiments with the compounds depicted in table 1 full length RIIα-His was used as the target protein. Prior to measurements of STD spectra in the presence of the target protein, the same set of experiments was performed in the absence of protein in order to confirm that no saturation of the compound signals takes place when irradiating the sample at the frequency chosen for protein irradiation. […] Table 2: Qualitative results from STD and HSQC experiments with the indicated compounds.
Saturation transfer difference nuclear magnetic resonance (STD-NMR)
(§2) NMR samples for STD-NMR contained 0.1 mM of the indicated compound in NMR buffer, with a final concentration of d6-DMSO of 2%. Samples were measured in presence or absence of 20 µM unlabelled PKA-RIIα FL(1-404)-His.
STD-NMR experiments were recorded with the carrier frequency set to -1000 (around -1 ppm) for on-resonance irradiation and about 330 ppm for off-resonance irradiation. A train of 50 Gaussian-shaped pulses at 40 ms was applied, each separated by a 1-ms delay, for a total duration of 2.05 s, to achieve selective protein saturation. Spectra acquisition was done with 32 scans in absence of protein and 256 scans in presence of protein and a relaxation delay of 1.3 s. A T1ρ spin lock pulse of 40 ms was used to suppress the background protein signals. The STD spectrum was obtained from the internal subtraction of the on-resonance from the off-resonance data by phase cycling.

For series [2], the target named is T2, D/D domain of RIIα (Homo sapiens, UniProt P13861).
T2 construct: ^15N-isotopically enriched RIIα(1-44)
The series can be described thus: 1H,15N-HSQC NMR binding experiment with 15N-labeled D/D domain. To be noted: result in words; 100 µM 15N-labeled D/D domain, 300 µM compound. As for the experimental part:
For an estimate of binding specificity, the compounds were tested in a second NMR assay for binding to the D/D domain of RIIα. The D/D domain contains the AKAP binding site of RIIα. Therefore, suitable small molecule mimetics of the RIIBD of AKAP18 must bind to this domain of the full length protein. In other words, binding to the D/D domain is a good initial test for an AKAP-like, specific interaction of the compounds with RIIα.
For this purpose HSQC-experiments with ^15N-labeled D/D domain were employed with the compounds depicted in table 3. The results obtained correspond to the results from the STD experiments. […] In Fig. 5, HSQC-spectra of the D/D domain in presence and absence of 25b are depicted.
^1H,^15N-Heteronuclear Single Quantum Coherence (HSQC)-NMR)
^1H,^15N-HSQC-NMR experiments were carried on a 600 MHz spectrometer at 300 K.
^1H,^15N-correlation experiments using with ^15N-isotopically enriched RIIα(1-44) were recorded using a standard HSQC pulse program or an HMQC-SOFAST pulse program, both employing WATERGATE for solvent suppression.
The protein concentration employed for binding studies was in the order of 0.1 mM. The concentration of compounds was 0.3 mM for compounds and 0.8 mM for peptides, respectively. Experiments were performed in NMR buffer containing 5% d6-DMSO. Each step was followed by recording of a new spectrum. The acquisition time in the direct dimension was restricted to 150 ms. A total of 256 increments was recorded in the indirect dimension. [formula]

Series [3] relates to AKAP18α-PKA interaction. To be noted: inhibition of AKAP18α-PKA interaction; cited from earlier work.
Series [4] in a line: behaviour of the compound in the STD-NMR sample solution. It is filed as physicochemical. The conditions noted are these: 0.1 mM in NMR buffer, 2% d6-DMSO; no ligand peaks measurable by NMR. Here is the method: as §1
In Fig. 4, the STD-spectra of a binding compound (25b) and a non-binding compound (14b) are depicted.
as §2

“Also recorded” adds a separate entry of the source.

T1 sequence (P13861 whole entry): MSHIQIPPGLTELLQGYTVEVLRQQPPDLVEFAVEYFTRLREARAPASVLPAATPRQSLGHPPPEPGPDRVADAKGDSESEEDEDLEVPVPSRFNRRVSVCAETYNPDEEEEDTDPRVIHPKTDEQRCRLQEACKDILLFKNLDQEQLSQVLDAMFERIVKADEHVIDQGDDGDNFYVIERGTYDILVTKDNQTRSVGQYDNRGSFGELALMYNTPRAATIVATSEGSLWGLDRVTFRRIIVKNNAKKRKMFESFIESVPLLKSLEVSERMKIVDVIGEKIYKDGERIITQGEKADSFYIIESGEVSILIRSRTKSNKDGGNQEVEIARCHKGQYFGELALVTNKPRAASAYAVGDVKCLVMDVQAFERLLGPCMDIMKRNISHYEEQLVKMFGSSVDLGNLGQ
T2 sequence (P13861 1-44): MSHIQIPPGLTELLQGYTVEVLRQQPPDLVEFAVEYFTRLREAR

As for `CCOC(=O)CCc1cnc(C#N)c(-c2ncccc2C)c1` [compound 27], in series [1], the “binding of the compounds to RIIα in STD experiments” value (“binding of the compounds to RIIα” for short) was “No binding was detected”. In addition, the “change in chemical shift of D/D domain signals upon addition of compound” value (shortened to “change in chemical shift”) in series [2] is “no perturbation of chemical shifts”.
`Cc1cc(-c2nc(CCCN(Cc3ccccc3)Cc3ccccc3)cc3c2CCC3)cnc1-c1cc(CCC(=O)O)cnc1C(N)=O` [25b, 3-[6-carbamoyl-5-[5-[3-[3-(dibenzylamino)propyl]-6,7-dihydro-5H-cyclopenta[c]pyridin-1-yl]-3-methyl-2-pyridyl]-3-pyridyl]propanoic acid]: in series [1], the “binding of the compounds to RIIα” value is on record as “reduction in ligand peak intensity”. Further, the “change in chemical shift” value in series [2] is reported as “change in chemical shift of D/D domain signals was observed”.
In the same order, the values of `Cc1cc(-c2nc(CCCN)cc3c2CCC3)cnc1-c1cc(CCC(=O)O)cnc1C(N)=O` [14b] are “No binding was detected” and “no perturbation of chemical shifts”.
“PEDAELVRLSKRLVENAVEKAVQQY (SEQ ID 01) [AKAP18δ-L314E]”: the IC50 entry in series [3] is “low nanomolar range”.
Take `CCOC(=O)CCc1cnc(C#N)c(-c2ncc(-c3nc(CCCN(Cc4ccccc4)Cc4ccccc4)cc4c3CCC4)c(C)c2C)c1` [22a, Ethyl 3-(6-cyano-5-(5-(3-(3-(dibenzylamino)propyl)-6,7-dihydro-5H-cyclopenta[c]pyridin-1-yl)-3,4-dimethylpyridin-2-yl)pyridine-3-yl)propanoate]: in series [4], the “solubility in the STD-NMR sample” value is “precipitated from solution; also recorded: crystallized from the solution”.
As to `Cc1cc(-c2nc(CCCNCc3ccccc3)cc3c2CCC3)cnc1-c1cc(CCC(=O)O)cnc1C(N)=O` [14c], the “binding of the compounds to RIIα” value in series [1] is “No binding was detected”. Besides, the “change in chemical shift” value in series [2] is given as “no perturbation of chemical shifts”.
Turning to `Cc1c(-c2nc(CCCN(Cc3ccccc3)Cc3ccccc3)cc3c2CCC3)cnc(-c2cc(CCC(=O)O)cnc2C(N)=O)c1C` [25a, 3-[6-carbamoyl-5-[5-[3-[3-(dibenzylamino)propyl]-6,7-dihydro-5H-cyclopenta[c]pyridin-1-yl]-3,4-dimethyl-2-pyridyl]-3-pyridyl]propanoic acid], the “binding of the compounds to RIIα” value in series [1] is on record as “reduction in ligand peak intensity”.
